Reference: patent publication US20240189315A1, “Cyclic Pyridine Derivatives as cGAS Inhibitors” (Boehringer Ingelheim International GmbH, priority 2022, published 2024)
Where two headings read alike, the source gives them in different places.

Legend:
[1] = test system: pathway directly downstream of cGAS in cGAMP-stimulated THP1-Dual cells; assay: cGAMP stimulated counter cell assay (THP1(cGAMP) IC50): IFN induction in cGAMP-stimulated THP1-Dual cells; type: cell-based, human; settings: for IC50: Homo sapiens, THP1-Dual; for Ratio THP(cGAMP) IC50/ THP(vir) IC50: selectivity for cGAS inhibition
Text: 6.2 Method: Human cGAS Cell Assay and cGAMP Stimulated Counter Cell Assay (THP1(vir) IC50 and THP1(cGAMP) IC50)
THP1-Dual™ cells (InvivoGen #thpd-nfis) expressing IRF dependent Lucia luciferase reporter were used as basis for both assays. For the detection of cellular cGAS activity cells were stimulated by a baculovirus (pFastbac-1, Invitrogen, no coding insert) infection that delivers the cGAS enzyme stimulating double-stranded DNA (measurement of THP1(vir) IC50).
For the counter assay, cells were stimulated by cGAMP (SigmaAldrich #SML1232) to activate the identical pathway independent and directly downstream of cGAS (measurement of THP1(cGAMP) IC50). Pathway activity was monitored by measuring the Lucia luciferase activity induced by either DNA stimulated cGAS enzyme activity (measurement of THP1(vir) IC50) or by cGAMP directly (measurement of THP1(cGAMP) IC50, counter assay).
Compounds were delivered in 10 mM DMSO solution, serially diluted and transferred to the 384 well assay plate (Greiner #781201) using an Echo acoustic dispenser. Typically, 8 concentrations were used with the highest concentration at 10 μM in the final assay volume followed by ˜1:5 dilution steps. DMSO concentration was set to 1% in the final assay volume. The 384 well assay plate contained 21 test compounds (column 1-22), and DMSO in column 23 and 24.
Cells, cultivated according to manufacturer conditions, were harvested by centrifugation at 300 g/10 min and were then resuspended and diluted to 1.66E5 cells/ml in fresh cell culture medium (RPMI 1640 (Gibco #A10491-01), 10% FCS (Gibco #10500), 1× GlutaMax (Gibco #35050-061), 1× Pen/Strep solution (Gibco #15140-122), 100 μg/ml Normocin (InvivoGen #ant-nr), 100 μg/ml Zeocin (InvivoGen #ant-zn), 10 μg/ml Blasticidin S (Life Technologies #A11139-03)). The baculovirus solution was then added 1:200 (have varied according to virus batch) to the cells (measurement of THP1(vir) IC50). […] 30 μL of the cell/virus-mix were added to each well of the compound plate from column 1-23 via MultiDrop Combi dispenser (5000 cells/well). In column 24, 30 μl/5000 cells/well without virus were added as a low control.
The plates were then incubated for 18 h at 37° C. in a humidified incubator.
Following that, 15 μL of QuantiLuc detection reagent (InvivoGen #rep-qlcg5) were added to each well using a MultiDrop Combi. Measurement was done immediately after the addition using an EnVision reader (US-luminescence read-mode).
Data Evaluation and Calculation:
For data evaluation and calculation, the measurement of the low control was set as 0% control and the measurement of the high control was set as 100% control. The IC50 values were calculated using the standard 4 parameter logistic regression formula. Calculation: [y=(a−d)/(1+(x/c)^b)+d], a=low value, d=high value; x=conc M; c=IC50 M; b=slope

[2] = molecular target: cellular cGAS activity in baculovirus-stimulated THP1-Dual cells (Homo sapiens (Human), UniProt Q8N884); assay: Human cGAS cell assay (THP1(vir) IC50): IFN induction in virus-stimulated THP1-Dual cells, IRF Lucia luciferase reporter; type: cell-based;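 further: Eight-point dilution series starting at 10 µM, 1% DMSO, 18 h at 37 °C, luminescence read-out, virus-free wells as 0% and DMSO-treated virus-stimulated wells as 100%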
Sequence of cellular cGAS activity in baculovirus-stimulated THP1-Dual cells (Q8N884 whole entry): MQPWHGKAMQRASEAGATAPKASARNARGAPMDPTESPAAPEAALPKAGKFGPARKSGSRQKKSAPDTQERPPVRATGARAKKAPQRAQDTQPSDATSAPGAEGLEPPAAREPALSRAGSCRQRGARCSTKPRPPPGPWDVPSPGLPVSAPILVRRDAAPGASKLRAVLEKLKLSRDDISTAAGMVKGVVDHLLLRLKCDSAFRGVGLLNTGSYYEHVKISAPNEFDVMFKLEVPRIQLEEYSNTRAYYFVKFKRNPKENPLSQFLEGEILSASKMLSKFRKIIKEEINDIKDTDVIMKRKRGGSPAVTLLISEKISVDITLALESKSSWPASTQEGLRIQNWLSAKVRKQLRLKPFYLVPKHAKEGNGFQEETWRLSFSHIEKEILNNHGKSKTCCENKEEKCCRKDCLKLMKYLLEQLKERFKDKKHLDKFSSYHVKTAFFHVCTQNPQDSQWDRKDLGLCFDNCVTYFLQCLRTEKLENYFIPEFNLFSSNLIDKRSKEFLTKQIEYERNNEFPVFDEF

[3] = molecular target: cellular cGAS activity in dsDNA-stimulated human whole blood (Homo sapiens (Human), UniProt Q8N884); assay: Human whole blood assay (hWB IC50): IFNα2a production after dsDNA transfection; type: cell-based;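 further: IFNα-2a in plasma measured by MSD electrochemiluminescence immunoassay after 22 h at 37 °C, 8-point dilution series from 10 µM top concentration, DMSO wells as controls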
Sequence of cellular cGAS activity in dsDNA-stimulated human whole blood (Q8N884 whole entry): as above

Human cGAS enzyme = Human cGAS enzyme (Homo sapiens (Human), UniProt Q8N884); assay: Human cGAS enzyme assay (hcGAS IC50, in vitro), cGAMP formation by RapidFire MS; type: biochemical;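 further: recombinant human cGAS activated by 45 bp dsDNA with 30 µM each ATP and GTP, 90 min, cGAMP vs cyclic-di-GMP standard by MS, 8-point titration from 10 µM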
Sequence of Human cGAS enzyme (Q8N884 whole entry): as above

[4] = Table 1, cGAMP-stimulated THP1 cells, read-out: THP(cGAMP) IC50
[5] = Table 1, virus-stimulated THP1 cells, read-out: THP(vir) IC50
[6] = Table 1, dsDNA-stimulated human whole blood

SMILES | IC50 [2, 5] [nM] | IC50 [3, 6] [nM] | IC50 (Human cGAS enzyme; Table 1) [nM] | IC50 ([2]; Table 2, compounds from WO 2020/142729, read-out: THP1(vir) IC50) [nM] | IC50 ([3]; Table 2, compounds from WO 2020/142729) [nM] | IC50 (Human cGAS enzyme; Table 2, compounds from WO 2020/142729 re-tested in the applicant's assay) [nM] | IC50 [1, 4] [nM] | Ratio THP(cGAMP) IC50/ THP(vir) IC50 ([1]; Table 1) | IC50 ([1]; Table 2, compounds from WO 2020/142729, read-out: THP1(cGAMP) IC50) [nM]
C[C@H]1CN2CC[C@]1(F)c1cc(Cl)cnc1O[C@H]1C[C@@H](C(=O)O)N(C1)c1nc(nc3c1oc1ccccc13)CCCCCOC2=O [Example 22, (1R,9S,11S,34S)-4-chloro-1-fluoro-34-methyl-31-oxo-8,15,30-trioxa-6,12,23,32,37-pentaaabestacyclo[30.2.2.1^9,12.1^13,24.0^2,7.0^14,22.0^16,21]octatriaconta-2,4,6,13(37),14(22),16(21),17,19,23-nonaene-11-carboxylic acid] | 490 | 1560 | 45 |  |  |  | > 10000 | 20 | 
C[C@H]1CN2CC[C@]1(F)c1cc(Cl)cnc1O[C@H]1C[C@@H](C(=O)O)N(C1)c1nc(nc3c1oc1ccccc13)CCCOCCC2=O [Example 23, (1R,9S,11S,34S)-4-Chloro-1-fluoro-34-methyl-31-oxo-8,15,28-trioxa-6,12,23,32,37-pentaazabestacyclo[30.2.2.1^9,12.1^13,24.0^2,7.0^14,22.0^16,21]octatriaconta-2,4,6,13(37),14(22),16(21),17,19,23-nonaene-11-carboxylic acid] | 69 | 114 | 12 |  |  |  | 10000 | 148 | 
C[C@H]1CN2CC[C@]1(F)c1cccnc1O[C@H]1C[C@@H](C(=O)O)N(C1)c1nc(nc3c1oc1ccccc13)CCCOCCC2=O [Example 24, (1R,9S,11S,34S)-1-fluoro-34-methyl-31-oxo-8,15,28-trioxa-6,12,23,32,37-pentaazaheptacyclo-[30.2.2.1^9,12.1^13,24.0^2,7.0^14,22.0^16,21]octatriaconta-2,4,6,13(37),14(22),16(21),17,19,23-nonaene-11-carboxylic acid] | 640 | 801 | 28 |  |  |  | > 10000 | 16 | 
C[C@H]1COCCCc2nc(c3oc4ccccc4c3n2)N2C[C@H](C[C@H]2C(=O)O)Oc2ncc(Br)cc2[C@@]2(F)CCN(C[C@@H]2C)C1=O [Example 25] | 110 | 116 | 7 |  |  |  | 1700 | 16 | 
C[C@H]1CN2CC[C@]1(F)c1cc(Cl)cnc1O[C@H]1C[C@@H](C(=O)O)N(C1)c1nc(nc3c1oc1ccccc13)CCCCOCC2=O [Example 27] | 83 | 33 | 5 |  |  |  | 1700 | 20 | 
C[C@H]1CN2CC[C@]1(F)c1cc(Br)cnc1O[C@H]1C[C@@H](C(=O)O)N(C1)c1nc(nc3c1oc1ccccc13)CCCCOCC2=O [Example 28] | 47 | 15 | 7 |  |  |  | 1900 | 39 | 
Cc1nc(N2C[C@@H](CC(=O)Nc3ccncc3)C[C@H]2C(=O)O)c2oc3ccccc3c2n1 [Example 28] |  |  |  | > 32000 | > 9990 | 630 |  |  | > 17000
CC#Cc1cnc2c(c1)[C@@]1(F)CCN(C[C@@H]1C)C(=O)COCCCCc1nc(c3oc4ccccc4c3n1)N1C[C@H](C[C@H]1C(=O)O)O2 [Example 29, (1R,9S,11S,34S)-1-fluoro-34-methyl-31-oxo-4-(prop-1-yn-1-yl)-8,15,29-trioxa-6,12,23,32,37-penta-azaheptacyclo[30.2.2.1^9,12.1^13,24.0^2,7.0^14,22.0^16,21]octatriaconta-2(7),3,5,13,16(21),17,19,22,24(37)-nonaene-11-carboxylic acid] | 57 | 22 | 14 |  |  |  | 2200 | 39 | 
C[C@H]1CN2CC[C@]1(F)c1cc(Cl)cnc1O[C@H]1C[C@@H](C(=O)O)N(C1)c1nc(nc3c1oc1cc(F)ccc13)CCCCOCC2=O [Example 30] | 70 | 22 | 7 |  |  |  | 4700 | 67 | 
C[C@H]1CN2CC[C@]1(F)c1cc(Cl)cnc1O[C@H]1C[C@@H](C(=O)O)N(C1)c1nc(nc3c1oc1ccccc13)CCCCCC2=O [Example 36] | 130 | 79 | 7 |  |  |  | > 10000 | 80 | 

Further molecules by falling IC50 [2, 5], results first:

IC50 [2, 5] [nM] | IC50 [3, 6] [nM] | IC50 (Human cGAS enzyme; Table 1) [nM] | IC50 ([2]; Table 2, compounds from WO 2020/142729, read-out: THP1(vir) IC50) [nM] | IC50 ([3]; Table 2, compounds from WO 2020/142729) [nM] | IC50 (Human cGAS enzyme; Table 2, compounds from WO 2020/142729 re-tested in the applicant's assay) [nM] | SMILES | IC50 [1, 4] [nM] | Ratio THP(cGAMP) IC50/ THP(vir) IC50 ([1]; Table 1) | IC50 ([1]; Table 2, compounds from WO 2020/142729, read-out: THP1(cGAMP) IC50) [nM]
46 | 276 | 18 |  |  |  | C[C@@H]1COCCCc2nc(c3oc4ccccc4c3n2)N2C[C@H](C[C@H]2C(=O)O)Oc2ncc(Br)cc2[C@@]2(F)CCN(C[C@@H]2C)C1=O [Example 26] | 3200 | 70 | 
36 | 41 | 8 |  |  |  | C[C@H]1CN2CC[C@]1(F)c1cc(Cl)cnc1O[C@H]1C[C@@H](C(=O)O)N(C1)c1nc(nc3c1oc1ccccc13)CCOCCOC2=O [Example 34, (1R,9S,11S,34S)-4-chloro-1-fluoro-34-methyl-31-oxo-8,15,27,30-tetraoxa-6,12,23,32,37-pentaaza-heptacyclo[30.2.2.1^9,12.1^13,24.0^2,7.0^14,22.0^16,21]octatriaconta-2,4,6,13(37),14(22),16(21),17,19,23-nonaene-11-carboxylic acid] | 16000 | 450 | 
12 | 11 | 3 |  |  |  | C[C@H]1CN2CC[C@]1(F)c1cc(Cl)cnc1O[C@H]1C[C@@H](C(=O)O)N(C1)c1nc(nc3c1oc1ccccc13)CCCOCC2=O [Example 37, (1R,9S,11S,33S)-4-chloro-1-fluoro-33-methyl-30-oxo-8,15,28-trioxa-6,12,23,31,36-pentaaza-heptacyclo[29.2.2.1^9,12.1^13,24.0^2,7.0^14,22.0^16,21]heptatriaconta-2,4,6,13(36),14(22),16(21),17,19,23-nonaene-11-carboxylic acid] | 11000 | 884 | 
8 | 9 | 5 |  |  |  | C[C@H]1CN2CC[C@]1(F)c1cc(Cl)cnc1O[C@H]1C[C@@H](C(=O)O)N(C1)c1nc(nc3c1oc1cc(F)ccc13)C(F)(F)CCCOCC2=O [Example 32] | > 10000 | 1190 | 
3 | 5 | 7 |  |  |  | C[C@H]1CN2CC[C@]1(F)c1cc(Cl)cnc1O[C@H]1C[C@@H](C(=O)O)N(C1)c1nc(nc3c1oc1ccccc13)C(F)(F)CCCOCC2=O [Example 31] | 7200 | 3002 | 
3 | 16 | 5 |  |  |  | C[C@H]1CN2CC[C@]1(F)c1cc(Cl)cnc1O[C@H]1C[C@@H](C(=O)O)N(C1)c1nc(nc3c1oc1cc(Cl)ccc13)C(F)(F)CCCOCC2=O [Example 33] | 6400 | 2085 | 
3 | 8 | 3 |  |  |  | C[C@H]1CN2CC[C@]1(F)c1cc(Cl)cnc1O[C@H]1C[C@@H](C(=O)O)N(C1)c1nc(nc3c1oc1ccccc13)CCOCCC2=O [Example 38, (1R,9S,11S,33S)-4-chloro-1-fluoro-33-methyl-30-oxo-8,15,27-trioxa-6,12,23,31,36-pentaaza-heptacyclo[29.2.2.1^9,12.1^13,24.0^2,7.0^14,22.0^16,21]heptatriaconta-2,4,6,13(36),14(22),16(21),17,19,23-nonaene-11-carboxylic acid] | > 10000 | 2964 | 
